According to patent publication US6365606B1, “6,5-fused aromatic ring systems having enhanced phosphodiesterase IV inhibitory activity” (Euro-Celtique, S.A., priority 1996, dated 2002):

How the values were obtained:
Format in all cases: biochemical
[1] = system: Type IV PDE isolated from bovine tracheal smooth muscle; assay: Type IV PDE activity, hydrolysis of [3H]-cyclic AMP; conditions: bovine tracheal smooth muscle enzyme; 0.2 μM cyclic AMP
Experimental: The Type IV PDE is isolated from bovine tracheal smooth muscle using a procedure similar to that previously described by Silver, P. J., et al.: Eur. J. Pharmacol. 150:85, 1988.(1). Eiiefly, smooth muscle from bovine trachea is minced and homogenized using a polytron in 10 volumes of an extraction buffer containing 10 mM Tris-acetate (pH 7.5), 2 mM magnesium chloride, 1 mM dithiothreitol and 2,000 units/ml of aprotinin. This and all subsequent procedures are performed at 0-4EC. The homogenate is sonicated and then centrifuged at 48,000×g for 30 minutes. The resulting supernatant is applied to a DEAE Trisacryl M column previously equilibrated with sodium acetate and dithiothreitol. After applications of the sample, the column is washed with sodium acetate/dithiothreitol, after which the different forms of PDE are eluted from the column using a linear Tris-HCl/NaCl gradient. Fractions containing Type IV PDE are collected, dialyzed and concentrated to 14% of the original volume. The concentrated fractions are diluted to 50% with ethylene glycol and stored at −20EC.
Enzyme activity is assessed by measuring the hydrolysis of [^3H]-cyclic AMP, as described by Thompson, W. J., et al.: Adv. Cyclic Nucleotide Res. 10:69, 1979. The cyclic AMP concentration used in this assay is 0.2 μM, which approximates to the Km value. Protein concentration is adjusted to ensure that no more than 15% of the available substrate is hydrolyzed during the incubation period.
All test compounds are dissolved in dimethyl sulfoxide (final concentration of 2.5%). This concentration of dimethyl sulfoxide inhibits enzyme activity by approximately 10%.
The compounds are tested over concentration range: 0.1, 1, 10, 100 uM (n=1), and IC50 determinations are made using 5 appropriate concentrations (n=2).

[2] = biological target: T1, Type III PDE isolated from human platelets (Homo sapiens, UniProt Q14432); assay: Type III PDE activity, hydrolysis of [3H]-cyclic AMP; conditions: human platelet enzyme; 0.2 μM cyclic AMP
T1 construct: Fractions containing PDE III activity are pooled and dialyzed; from tissue; host or cells: human platelets (100,000 x g supernatant, DEAE-Trisacryl M fraction)
T1 sequence (Q14432 whole entry): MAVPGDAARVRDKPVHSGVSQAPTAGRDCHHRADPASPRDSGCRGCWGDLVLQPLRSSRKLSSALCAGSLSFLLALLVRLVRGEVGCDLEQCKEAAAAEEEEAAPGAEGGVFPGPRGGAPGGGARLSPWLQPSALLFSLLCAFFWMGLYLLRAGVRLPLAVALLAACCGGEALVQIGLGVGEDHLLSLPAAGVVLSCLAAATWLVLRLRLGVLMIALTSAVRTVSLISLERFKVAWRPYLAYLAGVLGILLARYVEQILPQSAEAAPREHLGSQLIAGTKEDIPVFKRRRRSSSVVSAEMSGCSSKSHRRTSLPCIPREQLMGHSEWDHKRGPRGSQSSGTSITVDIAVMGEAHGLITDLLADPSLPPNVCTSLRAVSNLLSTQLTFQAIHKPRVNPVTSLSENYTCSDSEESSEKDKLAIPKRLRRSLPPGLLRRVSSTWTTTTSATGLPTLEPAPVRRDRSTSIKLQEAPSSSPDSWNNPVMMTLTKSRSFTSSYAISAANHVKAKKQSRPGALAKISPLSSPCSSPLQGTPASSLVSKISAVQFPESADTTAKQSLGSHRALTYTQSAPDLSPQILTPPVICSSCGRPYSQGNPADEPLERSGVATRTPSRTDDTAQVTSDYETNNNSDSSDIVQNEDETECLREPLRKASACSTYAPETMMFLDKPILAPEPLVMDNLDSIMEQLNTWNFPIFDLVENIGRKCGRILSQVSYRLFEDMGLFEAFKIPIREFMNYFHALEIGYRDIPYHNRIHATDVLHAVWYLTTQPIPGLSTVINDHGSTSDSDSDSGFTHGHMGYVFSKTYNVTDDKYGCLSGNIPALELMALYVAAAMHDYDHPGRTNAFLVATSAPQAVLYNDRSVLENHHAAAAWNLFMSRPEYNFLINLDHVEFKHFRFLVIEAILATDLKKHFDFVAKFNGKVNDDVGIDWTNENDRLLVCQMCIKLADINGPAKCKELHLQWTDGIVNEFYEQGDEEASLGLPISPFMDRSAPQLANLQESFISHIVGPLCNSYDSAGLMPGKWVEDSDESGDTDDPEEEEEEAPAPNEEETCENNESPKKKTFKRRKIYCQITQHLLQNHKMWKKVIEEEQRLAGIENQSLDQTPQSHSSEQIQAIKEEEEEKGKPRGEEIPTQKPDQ
Experimental: After application of the sample, the column is washed with several bed volumes of buffer B, after which the different forms of PDE are eluted from the column using two successive linear NaCl gradients (0.05-0.15 M, 300 ml total; 0.15-0.40 M, 200 ml total). Five milliliter fractions are collected and assayed for cyclic AMP and cyclic GMP PDE activity.

[3] = biological target: T2, Type V PDE isolated from platelets (Homo sapiens, UniProt O76074); assay: Type V PDE activity, hydrolysis of [3H]-cyclic GMP; conditions: platelet enzyme; 0.2 uM cyclic GMP
T2 construct: Fractions that contain PDE V are pooled and dialyzed overnight; from tissue; host or cells: platelets (supernatant, DEAE-Trisacryl M fraction)
Experimental: Briefly, 1-2 units of platelets are suspended in an equal volume of buffer A (20 mM Tris-HCl, pH 7.5, containing 2 mM magnesium acetate, 1 mM dithiothreitol, and 5 mM Na2EDTA) using a polytron. The proteinase inhibitor phenylmethylsulfonyl fluoride (PMSF) are also included in this buffer at a final concentration of 200 uM. […] The homogenate is then centrifuged at 100,000 rpm for 60 minutes. The supernatant is then removed and filtered through four layers of gauze and applied to a DEAE-Trisacryl M column. The column is washed with several bed volumes of buffer B (20 mM Tris-HCl, pH 7.5, containing 2 mM magnesium acetate, 1 mM diothiothreitol, and […] PMSF) and eluted by two successive linear NaCl gradients (0.05-0.15 M, 300 ml total; 0.15-0.40 M, 200 ml total). Five ml fractions are collected and assayed for cyclic AMP and cyclic GMP PDE activity. Fractions that contain PDE V are pooled and dialyzed overnight against 4 L of buffer C (20 mM Tris-HCl, pH 7.5, containing 2 mM magnesium acetate and proteinase inhibitors). […] PDE V can typically be retained for up to four weeks with little or no loss of activity.
The reference Type V PDE inhibitor zaprinast is evaluated with each assay.

IC50 [1] | IC50 [2] | IC50 [3] | Compound
13 nM |  |  | CC(C)(C)c1cc(Cc2nc3cc(Cl)cc(C#Cc4ccccn4)c3o2)cc(C(C)(C)C)c1O [Example 1, 5-chloro-2-(3,5-di-t-butyl-4-hydroxy-benzyl)-7-(2-(2-pyridyl)-ethynyl)-benzoxazole]
700 nM |  |  | CC(C)(C)c1cc(Cc2nc3cccc(C#Cc4ccccn4)c3o2)cc(C(C)(C)C)c1O [Example 2]
14 nM |  |  | CC(C)(C)c1cc(Cc2nc3cc(Cl)cc(C#Cc4nccs4)c3o2)cc(C(C)(C)C)c1O [Example 3, 5-chloro-2-(3,5-di-t-butyl-4-hydroxy-benzyl)-7-(2-(2-thiazolyl)-ethynyl)-benzoxazole]
420 nM | > 300000 nM | 19500 nM | CC(C)(C)c1cc(Cc2nc3cc(Cl)cc(C#CCO)c3o2)cc(C(C)(C)C)c1O [Example 4, 3-(5-chloro-2-(4-hydroxy-3,5-bis((1,1-dimethyl)ethyl)benzyl)benzoxazol-7-yl)prop-2-yn-1-ol]
3700 nM |  |  | COc1ccc(C2CNC(=O)C2)cc1OC1CCCC1 (centres unmarked) [Rolipram, reference compound]
321000 nM |  |  | Cn1c(=O)c2[nH]cnc2n(C)c1=O [Theophylline, reference compound]
